# Patent publication EP0070084A2, “Imidazoline derivatives” (BEECHAM GROUP PLC, priority 1981, dated 1983)
# Counter-ions that a name gives are not always drawn. Like-named read-outs stand apart in the source and are kept apart here.
# Assays:
# neonatal mice = test: Sedative activity, observation of orally dosed mice; format: in vivo; conditions: 6 neonatal mice, at 1 mg/kg and at 10 mg/kg, observed for 2 hours versus control mice
# Description: m-amino Clonidine was administered orally to 6 neonatal mice at 1 mg/kg and at 10 mg/kgwhichwere observed for 2 hours in comparison with control mice.
# piglets = format: in vivo; conditions: groups of 2 piglets; for MEAN SCOUR SCORE ± SEM: score 0-3
# [1] = 0.1 mg/kg p.o., duration of test 6 h
# [2] = 0.1 mg/kg p.o., duration of test 12 h
# [3] = 0.2 mg/kg p.o., duration of test 6 h
Compound,sedation (neonatal mice),o/o INHIBITION OF SCOUR (piglets; [1]) [o/o],MEAN SCOUR SCORE ± SEM (piglets; [1]),o/o INHIBITION OF SCOUR (piglets; [2]) [o/o],MEAN SCOUR SCORE ± SEM (piglets; [2]),o/o INHIBITION OF SCOUR (piglets; [3]) [o/o],MEAN SCOUR SCORE ± SEM (piglets; [3]),"MEAN SCOUR SCORE ± SEM (piglets; 0.2 mg/kg p.o., duration of test 12 h)","o/o INHIBITION OF SCOUR (piglets; 0.2 mg/kg p.o., duration of test 12 h, P 0.05) [o/o]","MEAN SCOUR SCORE ± SEM (piglets; 1 mg/kg p.o., duration of test 6 h)","o/o INHIBITION OF SCOUR (piglets; 1 mg/kg p.o., duration of test 6 h, P 0.01) [o/o]","MEAN SCOUR SCORE ± SEM (piglets; 1 mg/kg p.o., duration of test 12 h)","o/o INHIBITION OF SCOUR (piglets; 1 mg/kg p.o., duration of test 12 h, P 0.05) [o/o]"
"Nc1ccc(Cl)c(N=C2NCCN2)c1Cl [Example 3, 2-(3-amino-2,6-dichlorophenylimino) imidazolidine]",marked sedation,,,,,,,,,,,,
"Clc1cc(NCc2ccccc2)cc(Cl)c1N=C1NCCN1 [Example 4, 2-(4-Eenzylamino-2,6-dichlorophenylimino)imidazolidine_ hydrochloride]",,15,2.3 ± 0.5,10,1.9 ± 0.2,41,1.6 ± 0.1,1.2 ± 0.2,43,0.4 ± 0.4,85,1.1 ± 0.2,48
